For 84 molecules, IC50 results are on record in PubChem BioAssay AID588780 (Sanford-Burnham Center for Chemical Genomics, 2011).

Each structure is given as a SMILES string. Calls of active or inactive are those of the source.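 The calls were made as follows: active = compounds whose fitted half-maximal concentration in the cell-protection dose series is at or below a set limit; inactive = the rest.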 A value given as a limit tells only on which side of the number the result lay.

For this experiment, the system named is H9c2 cardiomyocytes, 2-deoxyglucose stress, ATP luminescence, 2 h. In words: H9c2 cell survival under 2-deoxyglucose stress – uHTS hits, dose response (AID 588780).
Take `O=C(CSc1nc2ccccc2c(=O)[nH]1)N1CCOCC1`: the IC50 was > 79 µM (inactive).
For `CCCn1nc(C(=O)OCC(=O)c2c(N)n(C)c(=O)n(C)c2=O)c2ccccc2c1=O`, the IC50 was 56.6 µM (inactive).
To `CC(OC(=O)CCc1nc2ccccc2c(=O)[nH]1)C(=O)NCc1ccc2c(c1)OCO2` (centres undefined) belongs > 79 µM (inactive); to `CCCCNC(=O)c1cn(-c2ccc(OCC)cc2)c(=O)c2cc(OC)c(OC)cc12`, 41.7 µM (inactive); to `O=C(COC(=O)c1ccc([N+](=O)[O-])o1)Nc1ccc(N2CCOCC2)cc1`, > 79 µM (inactive).
For the molecule `NS(=O)(=O)c1ccc(CCNc2ccn3nc(-c4ccc(OCCN5CCOCC5)cc4)cc3n2)cc1`, the IC50 is 37.3 µM (inactive).
To `CC(OC(=O)CCc1nc2ccccc2c(=O)[nH]1)C(=O)NC1CCCC1` (centres undefined) belongs 57.3 µM (inactive); to `O=C(c1ccco1)N1CCN(C(=O)c2cc(-c3ccncc3)nc3ccc(Br)cc23)CC1`, 13.8 µM.
Regarding `O=C(OCC(=O)N1CCc2ccccc21)c1n[nH]c(=O)c2ccccc12`, the IC50 is > 79 µM (inactive).
To `CN(C)Cc1ccc(-c2nc3cccc4c3n2CCNC4=O)cc1` belongs 49.2 µM (inactive); to `Cc1cc(C)c(C)c(S(=O)(=O)N2CCN(C(=O)c3cc(=O)[nH]c4ccccc34)CC2)c1C`, > 79 µM (inactive).
To `CCOc1ccc2[nH]c(=O)c(CN(CCO)C3(c4nnnn4C4CCCCC4)CCCCC3)cc2c1` belongs 35.1 µM (inactive); to `COC(=O)Cc1n[nH]c(=O)c2ccccc12`, > 79 µM (inactive).
For the molecule `CN(CC(=O)Nc1cccc(F)c1)C(=O)Cc1n[nH]c(=O)c2ccccc12`, the IC50 is > 79 µM (inactive).
Consider `CC(=O)c1ccc(-c2cnc3c(NC=O)cc(-c4cccc(C(=O)N(C)C)c4)cn23)cc1`, for which the 50% inhibitory concentration (IC50) was 14 µM.
To `Cc1cccc(/N=C/c2c(O)ccc3oc4c(c23)CCCC4)n1` belongs > 79 µM (inactive).
On to `CC1CCCC(C)N1C(=O)COC(=O)c1n[nH]c(=O)c2ccccc12` (centres undefined), for which the IC50 was > 79 µM (inactive).
Regarding `COc1ccc(C(=O)COC(=O)c2ccc([N+](=O)[O-])s2)cc1OC`, the IC50 was > 79 µM (inactive).
To `CC(C)(C)OC(=O)NCCCCCNC(=O)c1[nH]cnc1C(=O)Nc1cc(Br)ccc1F` belongs > 79 µM (inactive); to `COc1cc(-c2nnc(COC(=O)c3cc(C)nc4ccc(C)cc34)o2)cc(OC)c1OC`, 15.6 µM.
To `COc1cc(/C=C/c2nnc3c4ccccc4ncn23)cc(OC)c1OC` belongs > 79 µM (inactive).
For the molecule `O=C(CCc1nc2ccccc2c(=O)[nH]1)N1CCN(S(=O)(=O)c2cccc(F)c2)CC1`, the IC50 is > 79 µM (inactive).
As to `Cn1c(=O)c2c(nc(NCCCO)n2C/C=C/c2ccccc2)n(C)c1=O`, the IC50 is > 79 µM (inactive).
As to `O=C1c2ccccc2NC(c2ccc(Cl)cc2Cl)N1O` (centres undefined), the IC50 is 35 µM (inactive).
With `O=C(COC(=O)Cc1n[nH]c(=O)c2ccccc12)Nc1ccc(Cl)cc1F`, the IC50 is > 79 µM (inactive).
To `c1ccc(-c2cn3c(n2)CCc2ccc4cccnc4c2-3)cc1` belongs > 79 µM (inactive); to `Cc1ccc(C(C(=O)NCc2ccccc2)N(Cc2cccs2)C(=O)c2ccc3c(c2)OCCO3)cc1` (centres undefined), > 79 µM (inactive).
To `O=C(COC(=O)Cn1[nH]c(=O)c2ccccc2c1=O)NNC(=O)c1ccccc1` belongs > 79 µM (inactive).
To `CSc1nc2ccc(S(=O)(=O)Nc3c(C)n(C)n(-c4ccccc4)c3=O)cc2s1` belongs > 79 µM (inactive).
In the case of `Cc1cc(=O)oc2cc(OCC(=O)N3CCN(C(=O)C4COc5ccccc5O4)CC3)c(Cl)cc12` (centres undefined), the half-maximal inhibitory concentration (IC50) was 12.7 µM.
To `COc1ccc(Nc2nc(C(=O)N3CCc4cc(OC)c(OC)cc4C3)cs2)cc1` belongs > 79 µM (inactive); to `CC(=O)CCc1ccc(Oc2nc(-c3cccnc3)nc3ccccc23)cc1`, > 79 µM (inactive).
To `O=C1N[C@H](Cc2ccccc2)COC(=O)[C@@H](Cc2ccc(F)cc2)C/C=C\C[C@H]1CC(=O)N(CCO)Cc1ccccc1` belongs 20.5 µM.
For `Oc1c(Br)cc(Cl)cc1C=Nc1ccccc1Br`, the IC50 was 31.6 µM (inactive).
Turning to `COc1cccc(OC)c1-c1nn2c(-c3ccco3)nnc2s1`, the IC50 was > 79 µM (inactive).
For the molecule `CCCNC(=O)c1ccc(N2CCC3(CC2)CC(c2ccccc2)=NO3)c(NC(=O)c2ccco2)c1`, the IC50 was > 79 µM (inactive).
Take `COc1ccc(NC(=O)COc2cccc3c2CCNC3=O)cc1`: the IC50 was > 79 µM (inactive).
To `COc1ccc2[nH]c(=O)c(CN(c3ccccc3OC)S(=O)(=O)c3ccccc3)cc2c1` belongs 15.1 µM.
To `O=C(COc1ccc([N+](=O)[O-])cc1)Nc1nc(-c2ccccn2)cs1` belongs > 79 µM (inactive).
To `O=C(c1cc(=O)[nH]c2ccccc12)N1CCN(S(=O)(=O)c2ccc3ccccc3c2)CC1` belongs 14.5 µM.
`O=S(=O)(c1ccc(Cl)cc1)c1cc(O)ccc1O`: the IC50 is > 79 µM (inactive).
To `N#CCCN(C(=O)COC(=O)CCc1nc2ccccc2c(=O)[nH]1)c1ccccc1F` belongs > 79 µM (inactive); to `CCCC(c1nnnn1C(C)(C)CC)N(CCCO)Cc1cc2cc(C)cc(C)c2[nH]c1=O` (centres undefined), > 79 µM (inactive); to `COc1ccc(S(=O)(=O)N(CCCN2CCCC2=O)Cc2cc3cc(C)c(C)cc3[nH]c2=O)cc1`, 26.9 µM.
To `O=C(CNC(=O)c1cccc(F)c1)N/N=C/c1cc(Br)ccc1OC(=O)/C=C/c1ccco1` belongs > 79 µM (inactive); to `O=C(Nc1nnc(-c2ccc3c(c2)CCCC3)o1)c1ccccc1`, 23.3 µM.
Consider `O=C(CSc1nc2ccccc2c(=O)[nH]1)N1CCCCC1`, for which the IC50 was > 79 µM (inactive).
To `CC(=O)N1CCN(c2ccccc2NC(=O)c2ccc(-c3cccc([N+](=O)[O-])c3)o2)CC1` belongs 5.88 µM; to `Cc1ccccc1NP(=O)(Oc1ccccc1F)Oc1ccccc1F`, 24.8 µM; to `COc1ccc(C=NNc2nc3c([nH]2)c(=O)n(C)c(=O)n3C)cc1`, > 79 µM (inactive).
With `COC(=O)c1ccccc1S(=O)(=O)N(Cc1ccco1)Cc1cc2cc(OC)ccc2[nH]c1=O`, the 50% inhibitory concentration (IC50) was 15.4 µM.
As for `COc1ccc(-c2cc(C(=O)N3CCN(c4ccccc4)CC3)c3ccccc3n2)cc1OC`, the IC50 was > 79 µM (inactive).
Turning to `NC(=O)COc1ccc2oc(=O)cc(-c3cc4ccccc4o3)c2c1`, the IC50 is > 79 µM (inactive).
To `C[C@@H]1ON(C)[C@H]2C[C@H]3c4[nH]c5ccc(-c6ccc7c(c6)OCO7)cc5c4CCN3C[C@@H]12` belongs 54.8 µM (inactive).
With `Cc1nnc2ccc(-c3cccc(NC(=O)c4ccc(Cl)nc4)c3)nn12`, the concentration for half-maximal inhibition (IC50) was 22.1 µM.
As for `COC(=O)c1[nH]c2cc(OC)c(OC)cc2c1/C=N/Nc1ccccc1`, the IC50 is > 79 µM (inactive).
For the molecule `COc1cc2c(cc1OC)CN(c1nc(-c3cccnc3)nc3ccccc13)CC2`, the IC50 was > 79 µM (inactive).
To `N#Cc1c(-c2ccco2)cc(-c2ccccn2)nc1N` belongs 22.7 µM; to `COc1cccc(NC(=O)NC2(C(F)(F)F)Oc3ccccc3O2)c1`, 16.9 µM; to `c1ccc(-c2nc(-n3ccnc3)nc(-n3ccnc3)n2)cc1`, > 79 µM (inactive).
For the molecule `O=C(NNC(=O)C(c1ccccc1)c1ccccc1)c1ccccn1`, the IC50 is > 79 µM (inactive).
To `COc1cc(-c2cnc3c(NC=O)cc(-c4ccsc4)cn23)cc(OC)c1OC` belongs > 79 µM (inactive).
To `C[C@@H]1CN([C@H](C)CO)S(=O)(=O)c2ccc(C#Cc3ccccc3F)cc2O[C@H]1CN(C)C(=O)c1ccc2c(c1)OCO2` belongs > 79 µM (inactive); to `COc1ccnc(Oc2ccc(F)cc2)c1C(=O)N/C=N/OCc1ccc(Cl)cc1Cl`, 12.3 µM.
Turning to `O=C(CN1C(=O)CCC1=O)Nc1nc(-c2ccccn2)cs1`, the IC50 was 43.2 µM (inactive).
Turning to `O=C(COc1ccc(F)cc1)Nc1nc(-c2ccccn2)cs1`, the IC50 was > 79 µM (inactive).
Turning to `C/C(=N\NC(=O)c1cccnc1)c1ccc(OC2OCCOC2Oc2ccc(/C(C)=N/NC(=O)c3cccnc3)cc2)cc1` (centres undefined), the half-maximal inhibitory concentration (IC50) was 13.1 µM.
As for `COc1ccc(-c2csc(/C(C#N)=C(\O)CSc3nccn3C)n2)cc1OC`, the IC50 was > 79 µM (inactive).
To `O=C(Nc1cccc(N=Cc2cc(Br)cc(Br)c2O)c1)c1ccco1` belongs > 79 µM (inactive).
To `O=C(CCc1nc2ccccc2c(=O)[nH]1)Nc1nc(-c2cccs2)cs1` belongs > 79 µM (inactive); to `O=C(N/N=C\c1ccccn1)C1COc2cc3ccccc3cc2O1` (centres undefined), 8.87 µM; to `COc1ccc(CCNc2nc(-c3cccnc3)nc3ccccc23)cc1OC`, > 79 µM (inactive).
To `CC(C)C1Nc2ccc(C(=O)N3CCN(c4ccccn4)CC3)cc2NC1=O` (centres undefined) belongs > 79 µM (inactive); to `Cc1sc2nc(SCC(=O)N3CCOCC3)[nH]c(=O)c2c1C`, > 79 µM (inactive); to `COc1ccc(-c2ccc3c(c2)S(=O)(=O)c2cccc(C(=O)N4CCN(c5c(Cl)cncc5Cl)CC4)c2C3=O)cc1OC`, > 79 µM (inactive).
On to `O=c1[nH]c2cccc(F)c2n2cccc12`, for which the IC50 is 8.05 µM.
As for `Cn1c(-c2ccc(Cl)cc2)cnc1N`, the IC50 is > 79 µM (inactive).
As to `COc1ccc(CCn2c(=O)c3cccnc3n(Cc3ccc([N+](=O)[O-])cc3)c2=O)cc1OC`, the IC50 was 10.1 µM.
For `Cc1onc(-c2ccccc2)c1C(=O)NC(=S)NNC(=O)c1ccccc1O`, the IC50 was 37.2 µM (inactive).
Consider `COc1ccc(OC)c(C2CC(=O)c3c([nH]c(C(=O)OCC4CCCO4)c3C)C2)c1` (centres undefined), for which the IC50 is > 79 µM (inactive).
To `Fc1ccc(NC(=S)Nc2ccc3nccnc3c2)cc1` belongs > 79 µM (inactive); to `CC(=O)Nc1ccc(Nc2nc(-c3sc(NC(C)=O)nc3C)cs2)cc1`, 14.4 µM; to `Cc1nc(SCC(=O)NCc2ccc(F)cc2)c2c(=O)n(C)c(=O)n(C)c2n1`, > 79 µM (inactive).
Regarding `Cc1ccc(C)c(S(=O)(=O)N2CCN(C(=O)Cn3[nH]c(=O)c4ccccc4c3=O)CC2)c1`, the IC50 was > 79 µM (inactive).
